# Reference: PubChem BioAssay (NCI)
#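 Method: 48-hour compound exposure of cells in 96-well plates, five concentrations, linear interpolation of endpoints. GI50 marks 50% less growth. TGI denotes the concentration required for complete inhibition of growth.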
# Experiments:
# Experiment in all cases: DTP human tumour cell line panel, 48 h
# 786-0 renal = system: 786-0 renal
# A498 renal = system: A498 renal
# A549 NSCLC = system: A549 NSCLC
# ACHN renal = system: ACHN renal
# BT-549 breast = system: BT-549 breast
# CAKI-1 renal = system: CAKI-1 renal
# CCRF-CEM leukemia = system: CCRF-CEM leukemia
# COLO 205 colon = system: COLO 205 colon
# DU-145 prostate = system: DU-145 prostate
# EKVX NSCLC = system: EKVX NSCLC
# HCC-2998 colon = system: HCC-2998 colon
# HCT-116 colon = system: HCT-116 colon
# HCT-15 colon = system: HCT-15 colon
# HL-60(TB) leukemia = system: HL-60(TB) leukemia
# HOP-62 NSCLC = system: HOP-62 NSCLC
# HOP-92 NSCLC = system: HOP-92 NSCLC
# HS 578T breast = system: HS 578T breast
# HT29 colon = system: HT29 colon
# IGROV1 ovarian = system: IGROV1 ovarian
# K-562 leukemia = system: K-562 leukemia
# KM12 colon = system: KM12 colon
# LOX IMVI melanoma = system: LOX IMVI melanoma
# M14 melanoma = system: M14 melanoma
# MALME-3M melanoma = system: MALME-3M melanoma
# MCF7 breast = system: MCF7 breast
# MDA-MB-231 breast = system: MDA-MB-231 breast
# MDA-MB-435 = system: MDA-MB-435
# MOLT-4 leukemia = system: MOLT-4 leukemia
# NCI-H226 lung = system: NCI-H226 lung
# NCI-H23 lung = system: NCI-H23 lung
# NCI-H460 lung = system: NCI-H460 lung
# NCI-H522 lung = system: NCI-H522 lung
# NCI/ADR-RES ovarian = system: NCI/ADR-RES ovarian
# OVCAR-3 ovarian = system: OVCAR-3 ovarian
# OVCAR-4 ovarian = system: OVCAR-4 ovarian
# OVCAR-5 ovarian = system: OVCAR-5 ovarian
# OVCAR-8 ovarian = system: OVCAR-8 ovarian
# PC-3 prostate = system: PC-3 prostate
# RPMI-8226 leukemia = system: RPMI-8226 leukemia
# RXF 393 renal = system: RXF 393 renal
# SF-268 CNS = system: SF-268 CNS
# SF-295 CNS = system: SF-295 CNS
# SF-539 CNS = system: SF-539 CNS
# SK-MEL-2 melanoma = system: SK-MEL-2 melanoma
# SK-MEL-28 melanoma = system: SK-MEL-28 melanoma
# SK-MEL-5 melanoma = system: SK-MEL-5 melanoma
# SK-OV-3 ovarian = system: SK-OV-3 ovarian
# SN12C renal = system: SN12C renal
# SNB-19 CNS = system: SNB-19 CNS
# SNB-75 CNS = system: SNB-75 CNS
# SR leukemia = system: SR leukemia
# SW-620 colon = system: SW-620 colon
# T-47D breast = system: T-47D breast
# TK-10 renal = system: TK-10 renal
# U251 CNS = system: U251 CNS
# UACC-257 melanoma = system: UACC-257 melanoma
# UACC-62 melanoma = system: UACC-62 melanoma
# UO-31 renal = system: UO-31 renal
smiles,measurement,setting,value
CN1CCN(CC(=O)N(C)c2ccc(N=C(c3ccccc3)c3c(O)[nH]c4ccc(C#N)cc34)cc2)CC1,GI50,786-0 renal,2.3 µM
same,TGI,786-0 renal,14.6 µM
same,GI50,A498 renal,0.176 µM
same,TGI,A498 renal,2.46 µM
same,GI50,A549 NSCLC,3.13 µM
same,TGI,A549 NSCLC,21.2 µM
same,GI50,ACHN renal,3.06 µM
same,TGI,ACHN renal,10.9 µM
same,GI50,BT-549 breast,1.68 µM
same,TGI,BT-549 breast,3.69 µM
same,GI50,CAKI-1 renal,1.26 µM
same,TGI,CAKI-1 renal,8.96 µM
same,GI50,CCRF-CEM leukemia,1.2 µM
same,TGI,CCRF-CEM leukemia,12.5 µM
same,GI50,COLO 205 colon,0.528 µM
same,TGI,COLO 205 colon,12.4 µM
same,GI50,DU-145 prostate,3.9 µM
same,TGI,DU-145 prostate,14.4 µM
same,GI50,EKVX NSCLC,5.27 µM
same,TGI,EKVX NSCLC,19.7 µM
same,GI50,HCC-2998 colon,3.38 µM
same,TGI,HCC-2998 colon,13.4 µM
same,GI50,HCT-116 colon,1.02 µM
same,TGI,HCT-116 colon,2.47 µM
same,GI50,HCT-15 colon,3.55 µM
same,TGI,HCT-15 colon,14.9 µM
same,GI50,HL-60(TB) leukemia,1.18 µM
same,TGI,HL-60(TB) leukemia,6.36 µM
same,GI50,HOP-62 NSCLC,3.99 µM
same,TGI,HOP-62 NSCLC,16.5 µM
same,GI50,HOP-92 NSCLC,3.36 µM
same,TGI,HOP-92 NSCLC,20.8 µM
same,GI50,HS 578T breast,0.0938 µM
same,TGI,HS 578T breast,2.09 µM
same,GI50,HT29 colon,0.712 µM
same,TGI,HT29 colon,15 µM
same,GI50,IGROV1 ovarian,3.33 µM
same,TGI,IGROV1 ovarian,15.5 µM
same,GI50,K-562 leukemia,0.575 µM
same,TGI,K-562 leukemia,11.6 µM
same,GI50,KM12 colon,0.0516 µM
same,TGI,KM12 colon,6.03 µM
same,GI50,LOX IMVI melanoma,1.08 µM
same,TGI,LOX IMVI melanoma,2.58 µM
same,GI50,M14 melanoma,1.51 µM
same,TGI,M14 melanoma,3.27 µM
same,GI50,MALME-3M melanoma,1.77 µM
same,TGI,MALME-3M melanoma,3.39 µM
same,GI50,MCF7 breast,0.451 µM
same,TGI,MCF7 breast,13.7 µM
same,GI50,MDA-MB-231 breast,2.66 µM
same,TGI,MDA-MB-231 breast,6.32 µM
same,GI50,MDA-MB-435,1.66 µM
same,TGI,MDA-MB-435,4.04 µM
same,GI50,MOLT-4 leukemia,0.601 µM
same,TGI,MOLT-4 leukemia,9.38 µM
same,GI50,NCI-H226 lung,3.19 µM
same,TGI,NCI-H226 lung,16 µM
same,GI50,NCI-H23 lung,2.87 µM
same,TGI,NCI-H23 lung,12.2 µM
same,GI50,NCI-H460 lung,1.38 µM
same,TGI,NCI-H460 lung,3.25 µM
same,GI50,NCI-H522 lung,5.29 µM
same,TGI,NCI-H522 lung,22.4 µM
same,GI50,NCI/ADR-RES ovarian,17.9 µM
same,TGI,NCI/ADR-RES ovarian,60.1 µM
same,GI50,OVCAR-3 ovarian,3.19 µM
same,TGI,OVCAR-3 ovarian,14.2 µM
same,GI50,OVCAR-4 ovarian,3.03 µM
same,TGI,OVCAR-4 ovarian,14 µM
same,GI50,OVCAR-5 ovarian,7.11 µM
same,TGI,OVCAR-5 ovarian,19.2 µM
same,GI50,OVCAR-8 ovarian,4.87 µM
same,TGI,OVCAR-8 ovarian,> 100 µM
same,GI50,PC-3 prostate,2.37 µM
same,TGI,PC-3 prostate,17 µM
same,GI50,RPMI-8226 leukemia,2.65 µM
same,TGI,RPMI-8226 leukemia,6.52 µM
same,GI50,RXF 393 renal,1.39 µM
same,TGI,RXF 393 renal,3.38 µM
same,GI50,SF-268 CNS,2.62 µM
same,TGI,SF-268 CNS,14.6 µM
same,GI50,SF-295 CNS,3.14 µM
same,TGI,SF-295 CNS,15.8 µM
same,GI50,SF-539 CNS,0.961 µM
same,TGI,SF-539 CNS,2.23 µM
same,GI50,SK-MEL-2 melanoma,3.39 µM
same,TGI,SK-MEL-2 melanoma,15.7 µM
same,GI50,SK-MEL-28 melanoma,2.21 µM
same,TGI,SK-MEL-28 melanoma,4.62 µM
same,GI50,SK-MEL-5 melanoma,1.59 µM
same,TGI,SK-MEL-5 melanoma,3.16 µM
same,GI50,SK-OV-3 ovarian,0.614 µM
same,TGI,SK-OV-3 ovarian,21.1 µM
same,GI50,SN12C renal,1.56 µM
same,TGI,SN12C renal,11.4 µM
same,GI50,SNB-19 CNS,4.16 µM
same,TGI,SNB-19 CNS,16.6 µM
same,TGI,SNB-75 CNS,5.49 µM
same,GI50,SR leukemia,0.721 µM
same,TGI,SR leukemia,5.62 µM
same,GI50,SW-620 colon,1.9 µM
same,TGI,SW-620 colon,6.93 µM
same,GI50,T-47D breast,14.2 µM
same,TGI,T-47D breast,41.1 µM
same,GI50,TK-10 renal,10.5 µM
same,TGI,TK-10 renal,24.5 µM
same,GI50,U251 CNS,2.14 µM
same,TGI,U251 CNS,6.88 µM
same,GI50,UACC-257 melanoma,2.5 µM
same,TGI,UACC-257 melanoma,6.2 µM
same,GI50,UACC-62 melanoma,4.57 µM
same,TGI,UACC-62 melanoma,14.3 µM
same,GI50,UO-31 renal,2.42 µM
same,TGI,UO-31 renal,11.4 µM
